These results are taken from patent publication US4288590A, “7 -[Dα-(4-Hydroxy-1,5-naphthyridine-3-carboxamido)-α-arylacetam ido]-3-(N,N-dimethyl-aminomethylpyridinium) methyl-3-cephem-4-carboxylates” (Bristol-Myers Company, priority 1980, dated 1981).

Common to all, as to test: MIC, serial two-fold agar dilution (Table 1)
Assay type in all cases: cell-based
A general note: In agar dilution the substance is mixed into plates at graded concentrations.

For one test, the system named is Ps. aeruginosa A15150. Particulars: Pseudomonas aeruginosa, Mueller-Hinton agar. How it is done:
(§1) Minimum inhibitory concentrations (MIC) of BB-S 651, BB-S 669 and BB-S 676 were determined by serial two-fold agar dilution method using Steers' apparatus on Mueller-Hinton agar plate against 15 test organisms for primary screening as shown in Table 1.

The test system of the next test is S. aureus Smith A9537. Particulars: Staphylococcus aureus, SMITHA9537, Mueller-Hinton agar. How it is done:
as §1

A further test deals with E. coli A9660. Particulars: Escherichia coli; E. coli A9660, cephalothin-sensitive; Mueller-Hinton agar. The protocol:
as §1

The next test relates to Ps. aeruginosa A20717. Conditions: Pseudomonas aeruginosa, Mueller-Hinton agar. How it is done: as §1
The subject of another test is Ps. aeruginosa A20718. Conditions: Pseudomonas aeruginosa, Mueller-Hinton agar. How it is done:
as §1

Another test concerns E. coli A15148. Conditions: Escherichia coli; E. coli A15148, cephalothin-resistant; Mueller-Hinton agar. How it is done:
as §1

The next test deals with E. cloacae A9656. Particulars: Enterobacter cloacae, Mueller-Hinton agar. How it is done: as §1
Another test deals with E. coli A15164. Conditions: Escherichia coli; E. coli A15164, cephalothin-resistant; Mueller-Hinton agar. How it is done:
as §1

For another test, the system named is S. aureus 209P A9497. Conditions: Staphylococcus aureus. The protocol: as §1
The next test concerns Ps. aeruginosa A20229. Conditions: Pseudomonas aeruginosa, Mueller-Hinton agar. The protocol: as §1
In another test the test system is S. aureus #193. Particulars: Staphylococcus aureus. How it is done:
as §1

For a further test, the system named is E. coli Juhl A15119. Conditions: Escherichia coli, JUHLA15119; E. coli Juhl A15119, cephalothin-sensitive; Mueller-Hinton agar. How it is done: as §1
For test [1], the system named is S. aureus BX-1633-2 A9606. Conditions: Staphylococcus aureus, BX16332A9606. The protocol:
as §1

The next test deals with Ps. aeruginosa A9843. Conditions: Pseudomonas aeruginosa, Mueller-Hinton agar. The protocol: as §1
A further test concerns S. marcescens A20019. Particulars: Serratia marcescens, Mueller-Hinton agar. The protocol: as §1
Setting [2] is: S. aureus 209P A9497, Mueller-Hinton agar, read-out: MIC.
[3] abbreviates: S. aureus #193, penicillinase-producing, Mueller-Hinton agar, read-out: MIC.
The mark [4] stands for this setting: S. aureus BX-1633-2 A9606, penicillinase-producing, Mueller-Hinton agar, read-out: MIC.

Values after ≈ are worked out from the molar mass of the structure shown. Structures can show the parent of a compound that is named as a salt. Where two headings read alike, the source gives them in different places.

With `CC1(C)S[C@@H]2[C@H](NC(=O)C(C(=O)O)c3ccccc3)C(=O)N2[C@H]1C(=O)O` (stereo partly drawn) [Carbenicillin, reference compound], the MIC is 25 µg/mL (≈ 66.1 µM) in the test with Ps. aeruginosa A15150; 0.2 µg/mL (≈ 0.529 µM) against S. aureus Smith A9537; 0.8 µg/mL (≈ 2.11 µM) with E. coli A9660; more than 100 µg/mL with Ps. aeruginosa A20717; 25 µg/mL (≈ 66.1 µM) in the test with Ps. aeruginosa A20718; 3.1 µg/mL (≈ 8.19 µM) in the test on E. coli A15148. The MIC in the test on E. cloacae A9656 came to 3.1 µg/mL (≈ 8.19 µM); in the test on E. coli A15164 it was 6.3 µg/mL (≈ 16.6 µM); in the test on S. aureus 209P A9497 (setting [2]), 0.2 µg/mL (≈ 0.529 µM); with Ps. aeruginosa A20229, 50 µg/mL (≈ 132 µM); in the test with S. aureus #193, 12.5 µg/mL (≈ 33 µM); against E. coli Juhl A15119, 3.1 µg/mL (≈ 8.19 µM). For the same compound, the values for the MIC (in test [1]; against Ps. aeruginosa A9843; in the test on S. marcescens A20019) were 12.5 µg/mL (≈ 33 µM), 50 µg/mL (≈ 132 µM) and 3.1 µg/mL (≈ 8.19 µM), respectively.

As for `CN(C)Cc1ccc[n+](CC2=C(C(=O)[O-])N3C(=O)C(NC(=O)[C@H](NC(=O)c4cnc5cccnc5c4O)c4ccccc4)C3SC2)c1` (stereo partly drawn) [BB-S 676, 7-[D-α-(4-Hydroxy-1,5-naphthyridine-3-carboxamido)α-phenylacetamido]-3-(3-N,N-dimethylaminomethylpyridinium)methyl-3-cephem-4-carboxylateHydrochloride], the MIC is 1.6 µg/mL against Ps. aeruginosa A15150; 3.1 µg/mL against S. aureus Smith A9537; 3.1 µg/mL in the test with E. coli A9660; 6.3 µg/mL in the test with Ps. aeruginosa A20717; 1.6 µg/mL in the test on Ps. aeruginosa A20718; 6.3 µg/mL in the test with E. coli A15148. The MIC with E. cloacae A9656 worked out at 50 µg/mL; with E. coli A15164, 50 µg/mL; in the test with S. aureus 209P A9497 (setting [2]), 1.6 µg/mL; against Ps. aeruginosa A20229, 3.1 µg/mL; in the test on S. aureus #193 (setting [3]) it was 6.3 µg/mL; in the test with E. coli Juhl A15119, 12.5 µg/mL. The MIC in [1] (setting [4]) is 6.3 µg/mL; against Ps. aeruginosa A9843, 3.1 µg/mL; in the test with S. marcescens A20019 it was 50 µg/mL.

In the case of `CN(C)Cc1cc[n+](CC2=C(C(=O)[O-])N3C(=O)C(NC(=O)[C@H](NC(=O)c4cnc5cccnc5c4O)c4ccc(O)cc4)C3SC2)cc1` (stereo partly drawn) [BB-S 669, 7-[D-α-(4-Hydroxy-1,5-naphthyridine-3-carboxamido)-α-(4-hydroxyphenyl)acetamido]-3-(4-N,N-dimethylaminomethylpyridinium)methyl-3-cephem-4-carboxylate Hydrochloride], the MIC in the test with Ps. aeruginosa A15150 is 0.8 µg/mL; against S. aureus Smith A9537, 6.3 µg/mL; against E. coli A9660 it was 0.8 µg/mL; against Ps. aeruginosa A20717 it was 3.1 µg/mL; with Ps. aeruginosa A20718, 0.8 µg/mL; in the test on E. coli A15148, 0.8 µg/mL. For the same compound, the MIC with E. cloacae A9656 stood at 3.1 µg/mL; with E. coli A15164, 6.3 µg/mL; in the test with S. aureus 209P A9497 (209P), 3.1 µg/mL; with Ps. aeruginosa A20229 it was 1.6 µg/mL; in the test with S. aureus #193 (setting [3]), 25 µg/mL; in the test on E. coli Juhl A15119 it was 1.6 µg/mL. For the same compound, the MIC in test [1] (setting [4]) is 25 µg/mL; with Ps. aeruginosa A9843, 1.6 µg/mL; with S. marcescens A20019 it was 12.5 µg/mL.

A word on the MIC: it is the lowest concentration that inhibits growth of the organism.
